Earlier results as cited in patent US20060211664A1, “Method for treating erectile dysfunction and increasing libido in men” (priority 2002, published 2006).
Structures can show the parent of a compound that is named as a salt.

Columns and labels:
[1] = system: isolated human corpus cavernosum
[2] = target: sex hormone binding globulin (SHBG) and albumin (Homo sapiens, UniProt P02768); details: in men
[3] = system: sex hormone binding globulin (SHBG) and albumin; details: blood
[4] = target: T1, sex hormone binding globulin (SHBG) and albumin (Homo sapiens, UniProt P04278); details: in men, high-affinity
T1 sequence (P04278 30-402): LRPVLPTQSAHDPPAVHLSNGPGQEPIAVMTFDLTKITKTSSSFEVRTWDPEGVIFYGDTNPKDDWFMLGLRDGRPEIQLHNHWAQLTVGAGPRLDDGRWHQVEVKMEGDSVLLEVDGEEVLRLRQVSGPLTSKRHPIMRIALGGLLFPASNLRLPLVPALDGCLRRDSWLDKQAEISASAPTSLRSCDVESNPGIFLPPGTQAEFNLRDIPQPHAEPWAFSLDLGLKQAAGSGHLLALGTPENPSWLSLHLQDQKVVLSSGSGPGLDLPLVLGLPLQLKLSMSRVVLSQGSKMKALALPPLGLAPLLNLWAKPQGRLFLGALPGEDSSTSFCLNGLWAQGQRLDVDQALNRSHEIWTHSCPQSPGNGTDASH

sex hormone binding globulin (SHBG) and albumin (Homo sapiens, UniProt P02768), sequence (P02768 25-609): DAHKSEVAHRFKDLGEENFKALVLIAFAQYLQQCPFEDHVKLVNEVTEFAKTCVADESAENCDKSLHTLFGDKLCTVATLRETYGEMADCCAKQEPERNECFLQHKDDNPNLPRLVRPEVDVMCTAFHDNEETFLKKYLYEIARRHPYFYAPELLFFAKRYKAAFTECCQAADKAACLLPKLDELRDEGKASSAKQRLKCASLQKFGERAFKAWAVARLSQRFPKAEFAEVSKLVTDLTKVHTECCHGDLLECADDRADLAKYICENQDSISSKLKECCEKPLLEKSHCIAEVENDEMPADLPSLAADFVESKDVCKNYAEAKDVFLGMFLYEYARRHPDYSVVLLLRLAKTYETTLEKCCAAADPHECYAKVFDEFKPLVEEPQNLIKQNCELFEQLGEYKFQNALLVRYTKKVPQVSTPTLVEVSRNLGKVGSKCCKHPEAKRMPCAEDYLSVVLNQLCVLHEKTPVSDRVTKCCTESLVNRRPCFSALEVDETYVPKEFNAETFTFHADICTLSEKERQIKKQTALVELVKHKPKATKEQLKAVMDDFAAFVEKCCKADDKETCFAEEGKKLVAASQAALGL

SMILES: CCCc1nn(C)c2c(=O)[nH]c(-c3cc(S(=O)(=O)N4CCN(C)CC4)ccc3OCC)nc12 [VIAGRA®, sildenafil citrate USP]
- direct relaxant effect on isolated human corpus cavernosum [1]: no direct relaxant effect

SMILES: C[C@]12CC[C@H]3[C@@H](CCC4=CC(=O)CC[C@@]43C)[C@@H]1CC[C@@H]2O [Testosterone, testosterone]
- share of the binding bound weakly to albumin [2]: 60%
- testosterone in the blood bound to protein [3]: 98%
- share of the binding to sex hormone binding globulin (SHBG) [4]: approximately 40%
